# Key:
# [1] = molecular target: T1, Vitamin K epoxide reductase complex subunit 1 (Rattus norvegicus, UniProt Q6TEK4); assay: Inhibition of VKORC1 in rat liver microsomes in presence of 0.003 to 0.2 mM vitamin K
# T1 sequence (Q6TEK4 whole entry): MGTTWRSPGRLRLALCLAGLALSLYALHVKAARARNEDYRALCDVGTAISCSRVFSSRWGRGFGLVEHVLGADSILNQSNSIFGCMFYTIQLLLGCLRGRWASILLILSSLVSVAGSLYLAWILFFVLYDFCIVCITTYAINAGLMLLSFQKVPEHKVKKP
# Rattus norvegicus [2] = assay: Anticoagulant activity in Sprague-Dawley rat assessed as increase of prothombin time at 10 mg/kg, po after 24 hrs relative to control; format: functional
# Liver [3] = assay: Drug uptake in Sprague-Dawley rat liver assessed per gram of liver at 10 mg/kg, po after 24 hrs by HPLC-UV analysis; format: ADME, organism-based; settings: in vivo
# Liver [4] = assay: Drug uptake in Sprague-Dawley rat liver assessed per gram of liver at 10 mg/kg, po by HPLC-UV analysis; format: ADME, organism-based; settings: in vivo
# Rattus norvegicus [5] = assay: Anticoagulant activity in Sprague-Dawley rat assessed as increase of prothombin time at 10 mg/kg, po after 72 hrs relative to control; format: functional
# Liver [6] = assay: Drug uptake in Sprague-Dawley rat liver assessed per gram of liver at 10 mg/kg, po after 72 hrs by HPLC-UV analysis; format: ADME, organism-based; settings: in vivo
# Rattus norvegicus [7] = assay: Anticoagulant activity in Sprague-Dawley rat assessed as increase of prothombin time at 10 mg/kg, po after 7 hrs relative to control; format: functional
# Liver [8] = assay: Drug uptake in Sprague-Dawley rat liver assessed per gram of liver at 10 mg/kg, po after 7 hrs by HPLC-UV analysis; format: ADME, organism-based; settings: in vivo
Structure (SMILES),Ki [1],fold change (FC) (Rattus norvegicus [2]),Drug uptake (Liver [3]),other results
CCCCCCCCCCc1c(O)c2ccccc2oc1=O,0.09 µM,,,
CCCCCCCCCCCC(c1ccc(F)cc1)c1c(O)c2ccccc2oc1=O (stereo not given),0.02 µM,2,0.7 µg/g,
CCCCCCCCCCCCc1c(O)c2ccccc2oc1=O,0.05 µM,1,0.7 µg/g,
CC(C)CCCC(C)CCCC(C)CCCC(C)CC(c1ccccc1)c1c(O)c2ccccc2oc1=O (stereo not given),0.2 µM,1,,Drug uptake (Liver [4]; BLD = below limit of detection): Bld
CCCCCCCCCCCC(c1ccccc1)c1c(O)c2ccccc2oc1=O (stereo not given),0.03 µM,1,0.7 µg/g,
CCCCCCCCc1c(O)c2ccccc2oc1=O,0.26 µM,,,
CCCCCCCCCCCC(c1ccc(Cl)cc1Cl)c1c(O)c2ccccc2oc1=O (stereo not given),0.09 µM,2,3.5 µg/g,fold change (FC) (Rattus norvegicus [5]): 1; Drug uptake (Liver [6]): 0.7 µg/g
CCCCCCc1c(O)c2ccccc2oc1=O,3.9 µM,,,
CCCCCCCCCCCc1c(O)c2ccccc2oc1=O,0.06 µM,,,
CCCCCCCCCCCC(c1ccc(C(C)(C)C)cc1)c1c(O)c2ccccc2oc1=O (stereo not given),22 µM,,,
CC(C)CCCC(C)CCCC(C)CCCC(C)CCc1c(O)c2ccccc2oc1=O (stereo not given),0.05 µM,1,,Drug uptake (Liver [4]; BLD = below limit of detection): Bld
CCCCCCCCCCCC(c1ccc(OC)cc1)c1c(O)c2ccccc2oc1=O (stereo not given),0.1 µM,,,
CCCCCCCCCCCC(c1ccc(Cl)cc1)c1c(O)c2ccccc2oc1=O (stereo not given),0.02 µM,4,3 µg/g,fold change (FC) (Rattus norvegicus [7]): 1; fold change (FC) (Rattus norvegicus [5]): 1; Drug uptake (Liver [8]): 13 µg; Drug uptake (Liver [6]): 1 µg/g
CCC(c1ccccc1)c1c(O)c2ccccc2oc1=O (stereo not given) [PHENPROCOUMON],0.2 µM,5.5,12.8 µg/g,Drug uptake (Liver [6]): 1.7 µg/g
C/C(=C\Cc1c(O)c2ccccc2oc1=O)CCCC(C)CCCC(C)CCCC(C)C (stereo not given),0.02 µM,1,,Drug uptake (Liver [4]): 1.3 µg/g

# — ChEMBL document CHEMBL4004874, “Synthesis and biological evaluation of C-3 aliphatic coumarins as vitamin K antagonists” (Bioorg Med Chem Lett, 2017)
